Data from US3985779A, “M-phenoxyphenyl propionic acid derivatives and preparation thereof” (Eisai Co., Ltd., priority 1973, dated 1976).

How the values were obtained:
[1] = test system: stomachs of the rats; type: in vivo; details: 100 mg/kg oral; score 0 (nothing unusual) to 10 (considerable irritability with bleeding)
Excerpt: Observation of gastric irritability
Gastric irritability due to oral administration of the compounds as edema inhibitory agent was studied by macroscopical observation of the dissected stomachs of the rats which had been employed for determination of the edema inhibitions mentioned in the preceding paragraphs. The degrees of the irritability observed were scored in the 0 to 10 ratings depending upon the extent of errosions and bleedings of the stomachs, wherein the rating of 0(zero) means "nothing unusual", the rating of 10 means a state of considerable gastric irritability with bleeding and the remainders mean the intermediate degree of gastric irritability.

[2] = in vivo; details: mouse, po
Experimental: Comparison of toxicity of the phenyl propionic acid derivatives of the present invention and that of the other known anti-inflammatory agents was carried out in mice.

[3] = test system: yeast-induced pyrexia; experiment: Antipyretic activity to the yeast-treated rats (Experiment I); type: in vivo, rats (Wistar strain male)
Experimental: To Wistar strain male rats having about 300 - 350 grs. body weight, an aqueous suspension of yeast was subcutaneously injected to induce pyrexia.
At the lapse of 4 hours since the dose of the yeast suspension, the compounds under test given in hereinaftermentioned Table 10 in a form of suspension in a 5% gum arabic aqueous solution are orally administered. The rectal temperatures of the rats were measured periodically by means of a thermister-type thermometer sold by Japan Koden K.K. As control, said 5% gum arabic aqueous solution alone was administered.

[4] = test system: writhing syndrome; experiment: Analgesic activity: antagonism to acetic acid writhing syndrome in mice (Experiment J); type: in vivo, mice (dd strain male)
Experimental: Analgesic activity of the compound of the present invention in comparison with the known compounds.
Analgesic activity of the compound was tested as the measure of antagonism to writhing syndrome appeared when 0.1 ml/10g of 0.7% acetic acid was intraperitoneally injected to the dd strain male mice having 17 - 20 grs. body weight which had been abstinence from food for 18 hours.
The compounds under test were orally administered in a form of suspension in a 5% aqueous solution of gum arabic. After one hour from the administration, the onset times required for the writhing syndrome were scored.
In another Experiment in the combined use of the compounds under test and Codeine phosphate, 10 - 20 mg/kg of Codeine phosphate were orally administered immediatly after the oral administration of the compounds under test.

With `CC(=O)Oc1ccccc1C(=O)O` [Aspirin] the “Degree of gastric irritability” value [1] was 10, the LD50 [2] was 1600 mg/kg and the “body temperature relative to normal (in words)” value ([3]; 320 mg/kg p.o.) was “body temperature injuriously depressed below the normal body temperature”. The “Change in rectal temperature, mean ± S.E.” value (shortened to “Change in rectal temperature”) ([3]; 1 hr, 80 mg/kg p.o.) was -0.18 ± 0.10, the “Change in rectal temperature” value ([3]; 1 hr, 160 mg/kg p.o.) was -0.48 ± 0.23 and the “Change in rectal temperature” value ([3]; 1 hr, 320 mg/kg p.o.) was -0.75 ± 0.10. The “Change in rectal temperature” value ([3]; 3 hrs, 80 mg/kg p.o.) was -0.25 ± 0.18, the “Change in rectal temperature” value ([3]; 3 hrs, 160 mg/kg p.o.) was -1.05 ± 0.18 and the “Change in rectal temperature” value ([3]; 3 hrs, 320 mg/kg p.o.) was -1.68 ± 0.28. The “Change in rectal temperature” value ([3]; 5 hrs, 80 mg/kg p.o.) was -0.20 ± 0.12, the “Change in rectal temperature” value ([3]; 5 hrs, 160 mg/kg p.o.) was -0.95 ± 0.18 and the “Change in rectal temperature” value ([3]; 5 hrs, 320 mg/kg p.o.) was -1.30 ± 0.29. For the same compound, the “Onset time of writhing syndrome, mean ± S.E.” value (“Onset time” below) ([4]; 10 mg/kg p.o. combined with Codeine Phosphate 10 mg/kg) was 5.4 ± 0.4 min, the “Onset time” value ([4]; 10 mg/kg p.o. combined with Codeine Phosphate 20 mg/kg) was 9.6 ± 1.8 min and the “Onset time” value ([4]; 160 mg/kg p.o. combined with Codeine Phosphate 10 mg/kg) was 6.2 ± 0.6 min. For the same compound, the “Onset time” value ([4]; 160 mg/kg p.o. combined with Codeine Phosphate 20 mg/kg) was 11.1 ± 1.6 min, the minimal effective dose ([4]; Mus musculus, 1 h, single oral administration, read-out: dose with significant antagonism / retardation of writhing syndrome) was 160 mg/kg and the “Onset time” value ([4]; test compound alone, 10 mg/kg p.o.) was 5.2 ± 1.4 min. The “Onset time” value ([4]; test compound alone, 160 mg/kg p.o.) was 5.9 ± 0.8 min.
